Read-outs that look alike come from different tables or passages of the source.

The target of test [1] is T1, α-glucosidase (EC 3.2.1.20, from baker's yeast) (Saccharomyces cerevisiae, UniProt P53341).
T1 construct: purchased Sigma-Aldrich Chemie (Germany)
Put plainly: biochemical. Conditions: pH 6.9, 37°C. The protocol: Column chromatography was carried out using silica gel (230–400 mesh) obtained from Merck (Germany), RP-18 (230–400 mesh) and Sephadex LH-20 procured from Fluka (Switzerland). Pre-coated silica gel 60 F254 plates and silica gel 60 RP-18 F254S plates (Merck, Germany) were used for TLC. Spots were observed under UV at 254 and 366 nm and spraying with anisaldehyde-H2SO4 reagent (Sigma-Aldrich Chemie, Germany) and heating at 120°C for 5 min. HPLC separations were performed on a Knauer Wellchrom system connected to a photodiode array detector (Smart line system, Germany). ^1H and ^13C NMR spectra were measured on a Bruker Avance DRX 500 spectrometer operating at 500 MHz for ^1H and 125 MHz for ^13C using a 5 mm PABBO probehead. α-glucosidase (EC 3.2.1.20, from baker’s yeast, 77 U/mg), p-nitrophenyl-α-d-glucopyranoside, vitamin E 97% and 2, 2-diphenyl-picrylhydrazyl (DPPH) were obtained from Sigma-Aldrich Chemie (Germany). Sodium carbonate, FeCl3, sodium acetate, ferrous sulfate [FeSO4.7H2O], gallic acid, 2, 4, 6-tripyridyl-s-triazine (TPTZ) solution, and Folin-Ciocalteu reagent were all obtained from Merck (Germany).
α-Glucosidase inhibitory activities were evaluated according to the chromogenic method described by McCue et al. (2005), with some modifications. The enzyme solution contained 20 μl α-glucosidase (0.5 unit/ml) and 120 μl 0.1 M phosphate buffer (pH 6.9). p-Nitrophenyl-α-D-glucopyranoside (5 mM) in the same buffer (pH 6.9) was used as a substrate solution. Ten microliters of test samples, dissolved in DMSO at various concentrations, were mixed with enzyme solution in microplate wells and incubated for 15 min at 37°C. Twenty microliters of substrate solution were added and incubated for an additional 15 min. The reaction was terminated by adding 80 μl of 0.2 M sodium carbonate solution. Absorbance of the wells was measured with a microplate reader at 405 nm, while the reaction system without plant extracts was used as control. […] Each experiment was conducted in triplicate. The enzyme inhibitory rates of samples were calculated as follows:
Inhibition%=[(control absorption-sample absorption)/control absorption)]×100.
The IC50 values of samples were calculated and reported as the mean ± standard deviation (SD) of three experiments.

A short description of test [2]: DPPH free radical scavenging activity. Particulars: absorbance at 517 nm after 30 minutes. As to the method: The antioxidant activities of the extracts were determined with the DPPH assay according to an established protocol. Extract solutions of 500, 250, 100, and 50 μg/ml were prepared in methanol. Each test tube contained 1 ml of the samples and 2 ml freshly prepared DPPH solution of 40 μg/ml in methanol. […] Absorbance of the mixtures were recorded at 517 nm after 30 minutes, against the blank covets of DPPH solution. Vitamin E was used as a positive control. All samples were assayed in triplicate and IC50 values were calculated.
On the technique in general: The DPPH test is a chemical assay of radical scavenging.

The nature of test [3]: FRAP assay (ferric-reducing ability). Conditions: 37°C, 10 minutes, 593 nm. The protocol: Antioxidant activities of plant extracts were evaluated by monitoring their ferric-reducing abilities. Freshly prepared FRAP reagent contained 5 ml FeCl3 (20 mM) plus 5 ml of a 10 mM TPTZ solution in 40 mM HCl and 50 ml of 300 mM acetate buffer (pH = 3.6). One hundred microliters of the samples, dissolved in methanol at various concentrations, were mixed with 3 ml FRAP reagent and incubated at 37°C for 10 minutes; the absorptions at 593 nm were recorded. A calibration curve was generated in the range of 125–750 μM ferrous sulfate (FeSO4.7H2O). Vitamin E was used as a positive control and the results were expressed as mmol ferrous ion equivalent per gram of extracts.

The mark [4] stands for this setting: mean ± SD of three experiments, read-out: α-Glucosidase inhibitory activity IC50.
Where [5] appears, read: α-Glucosidase inhibitory activity IC50, mean ± SD of three experiments.

T1 sequence (P53341 whole entry): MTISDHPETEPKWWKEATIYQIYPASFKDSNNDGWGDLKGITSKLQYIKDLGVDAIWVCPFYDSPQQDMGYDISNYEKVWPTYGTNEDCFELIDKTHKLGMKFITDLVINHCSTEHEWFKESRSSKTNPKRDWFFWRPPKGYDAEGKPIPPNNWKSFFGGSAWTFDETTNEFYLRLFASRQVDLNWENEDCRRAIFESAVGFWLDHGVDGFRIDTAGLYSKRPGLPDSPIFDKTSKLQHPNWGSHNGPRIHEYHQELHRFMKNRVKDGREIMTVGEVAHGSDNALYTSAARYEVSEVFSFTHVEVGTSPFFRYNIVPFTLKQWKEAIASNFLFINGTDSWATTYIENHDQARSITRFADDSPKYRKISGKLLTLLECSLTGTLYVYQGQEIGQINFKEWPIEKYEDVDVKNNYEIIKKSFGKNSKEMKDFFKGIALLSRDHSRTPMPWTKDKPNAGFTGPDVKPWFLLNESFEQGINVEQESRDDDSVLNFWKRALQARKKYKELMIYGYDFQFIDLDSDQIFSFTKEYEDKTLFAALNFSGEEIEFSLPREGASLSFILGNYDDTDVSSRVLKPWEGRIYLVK

What is called IC50 is the concentration at which inhibition is half-maximal. In the case of `Oc1cc(O)c2c(c1)OC(c1ccc(O)c(O)c1)C(O)C2` (single isomer, unassigned; (+)) [Compound 7, (+) catechin], the IC50 in test [1] (setting [4]) amounted to 6.6 ± 3.5 µM.

Turning to `Oc1cc(O)c2c(c1)OC(c1cc(O)c(O)c(O)c1)C(O)C2` (single isomer, unassigned; (-)) [Compound 8, (-) gallocatechin], half-maximal inhibition in test [1] (setting [5]) (IC50) required 1 ± 0.3 µM. Same read-out and setting: next, `O=c1c(O)c(-c2cc(O)c(O)c(O)c2)oc2cc(O)cc(O)c12` [Compound 2, myricetin]: 1.3 ± 0.6 µM.

With `O=C(/C=C/c1ccc(O)c(O)c1)NCCc1ccc(O)cc1` [Compound 3, N-trans-caffeoyl-tyramine], the half-inhibitory concentration (IC50) in test [1] (setting [4]) stood at 0.3 ± 0.3 µM. Regarding `CC(=O)OC[C@@H]1O[C@@H](Oc2c(-c3ccc(O)c(O)c3)oc3cc(O)cc(O)c3c2=O)[C@H](O)[C@H]1OC(C)=O` [Compound 4, quercetin 3-O-α-L-(3",5"-diacetyl-arabinofuranoside)], the IC50 in test [1] (setting [4]) worked out at 4.9 ± 1.5 µM. As to `CC(=O)OC1C(CO)OC(Oc2c(-c3ccc(O)c(O)c3)oc3cc(O)cc(O)c3c2=O)C1O` [Compound 5, quercetin 3-O-α-L-(3"-acetyl-arabinofuranoside)], the 50% inhibitory concentration (IC50) in test [1] (setting [4]) stood at 4.8 ± 1.9 µM. Still for that read-out and setting: next, `CC(=O)OC[C@@H]1O[C@@H](Oc2c(-c3cc(O)c(O)c(O)c3)oc3cc(O)cc(O)c3c2=O)[C@H](O)[C@H]1OC(C)=O` [Compound 6, myricetin 3-O-α-L-(3",5"-diacetyl-arabinofuranoside)]: 5.8 ± 2.8 µM; `O=c1c(OC2OC(CO)C(O)C(O)C2O)c(-c2cc(O)c(O)c(O)c2)oc2cc(O)cc(O)c12` [Compound 9, myricetin 3-O-β-D-galactopyranoside]: 4.8 ± 0.8 µM. The same measure, in the same setting: the value for `O=c1c(O[C@@H]2O[C@@H](CO)[C@H](O)[C@H]2O)c(-c2cc(O)c(O)c(O)c2)oc2cc(O)cc(O)c12` [Compound 12, myricetin 3-O-α-L-arabinofuranoside] was 4.2 ± 2.9 µM. Compound `O=c1c(O[C@@H]2O[C@@H](CO)[C@H](O)[C@H]2O)c(-c2ccc(O)c(O)c2)oc2cc(O)cc(O)c12` [Compound 13, quercetin 3-O-α-L-arabinofuranoside] showed an IC50 in test [1] (setting [5]) of 7.6 ± 0.9 µM. Turning to vitamin E, the “DPPH assay IC50” value in test [2] turned out to be 14.12 ± 0.9 µg/mL; in test [2] (listed as vitamin E) it was 14.1 µg/mL. Moreover, the FRAP assay is 2.40 ± 0.76 mmol ferrous ion equivalent/g in test [3] and 2.4 mmol ferrous ion equivalent/g in test [3] (listed as vitamin E).

The values are drawn from PMC3555856, “In vitro α-glucosidase inhibitory activity of phenolic constituents from aerial parts of Polygonum hyrcanicum” (DARU Journal of Pharmaceutical Sciences, 2012).
